Experimental data as given in patent US20190133128A1, “Fungicidal pyridazinones” (FMC Corporation, priority 2017, published 2019).

Legend:
Format in all cases: in vivo
[1] = system: Erysiphe graminis f. sp. tritici; assay: Test G: preventive spray on wheat seedlings, wheat powdery mildew, visual disease rating; settings: 250 ppm, 100 = 100% disease control, 0 = no control; for pest or weed control at 250 ppm: Blumeria graminis, 192 h
Outline: (§1)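 Preventive foliar spray of wheat seedlings to run-off, at 250 ppm or other indicated rate. Compounds dissolved in acetone (3% of final volume), suspended in 50/50 acetone–water with PEG400 surfactant. Disease rated visually.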

Botrytis cinerea = assay: Test C: preventive spray on tomato seedlings, gray mold, visual disease rating; settings: 250 ppm, 100 = 100% disease control, 0 = no control; for pest or weed control at 250 ppm: Botrytis cinerea
Outline: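 Tomato seedlings received a run-off spray, typically 250 ppm (or stated rate), ahead of gray mold inoculation and visual scoring. Test suspensions: acetone stock (3% of volume) diluted into 1:1 acetone/water containing PEG400.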

Zymoseptoria tritici = assay: Test E: preventive spray on wheat seedlings, wheat leaf blotch, visual disease rating; settings: 250 ppm, 100 = 100% disease control, 0 = no control; for pest or weed control at 250 ppm: Zymoseptoria tritici
Outline: as §1

Plasmopara viticola = assay: Test B: preventive spray on grape seedlings, grape downy mildew, disease rating; settings: 250 ppm, 100 = 100% disease control, 0 = no control
From the text: General protocol for preparing test solutions for Tests AG: the test compounds were first dissolved in acetone in an amount equal to 3% of the final volume and then suspended at the desired concentration (in ppm) in acetone and purified water (50/50 mix by volume) containing the surfactant PEG400 (polyhydric alcohol esters). The resulting test suspensions were then used in Tests AG. Compounds were sprayed at a concentration of 250 ppm or other indicated rate to the point of run-off on the test plants. The test solution was sprayed to the point of run-off on grape seedlings. […] A dash (-) indicates no test results.

[2] = system: Puccinia recondita f. sp. tritici; assay: Test F: preventive spray on wheat seedlings, wheat leaf rust, visual disease rating; settings: 250 ppm, 100 = 100% disease control, 0 = no control; for pest or weed control at 250 ppm: Puccinia recondita
Outline: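 Preventive test: wheat seedlings were sprayed to run-off with compound suspended in acetone/water 50/50 plus PEG400 (250 ppm or other indicated rate). One day later they received Puccinia recondita f. sp. tritici spores, and disease was scored visually.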

Phytophthora infestans = assay: whole plant or invertebrate; settings: for pest or weed control at 250 ppm: Phytophthora infestans, in Solanum lycopersicum, read-out: Test D disease control rating; for Test D disease control rating: 250 ppm, tomato seedlings, 100 = 100% disease control, 0 = no control
Phakopsora pachyrhizi = assay: Test A: preventive spray on soybean seedlings, Asian soybean rust, visual disease rating; settings: 250 ppm, 100 = 100% disease control, 0 = no control; for pest or weed control at 250 ppm: Phakopsora pachyrhizi

| SMILES | Test G disease control rating [1] | Test C disease control rating (Botrytis cinerea) | Test E disease control rating (Zymoseptoria tritici) | Test B disease control rating (Plasmopara viticola) | Test F disease control rating [2] | pest or weed control at 250 ppm [1] | pest or weed control at 250 ppm (Phytophthora infestans) | pest or weed control at 250 ppm (Botrytis cinerea) | pest or weed control at 250 ppm (Zymoseptoria tritici) | pest or weed control at 250 ppm [2] | pest or weed control at 250 ppm (Phakopsora pachyrhizi) | Test D disease control rating (Phytophthora infestans) | Test A disease control rating (Phakopsora pachyrhizi) |
| --- | --- | --- | --- | --- | --- | --- | --- | --- | --- | --- | --- | --- | --- |
| CCCC(=O)Oc1cnn(C)c(=O)c1C(=O)Nc1ccc(OC(F)(F)F)cc1 [Compound 87] | 99% | 0% | 100% | 100% | 100% | – | – | – | – | – | – | – | – |
| Cn1ncc(OS(C)(=O)=O)c(C(=O)Nc2ccc(C(F)(F)F)cc2)c1=O [Compound 96, 2,3-Dihydro-2-methyl-5-[(methylsulfonyl)oxy]-3-oxo-N-[4-(trifluoromethyl)phenyl]-4-pyridazinecarboxamide] | – | – | – | – | – | 84% | 0% | 30% | 97% | 99% | 98% | – | – |
| Cn1ncc(OS(C)(=O)=O)c(C(=O)Nc2ccc(OC(F)F)cc2)c1=O [Compound 97, N-[4-(Difluoromethoxy)phenyl]-2,3-dihydro-2-methyl-5-[(methylsulfonyl)oxy]-3-oxo-4-pyridazinecarboxamide] | – | – | – | – | – | 91% | 95% | 40% | 100% | 99% | 95% | – | – |
| Cn1ncc(OS(C)(=O)=O)c(C(=O)Nc2ccc(C#N)cc2)c1=O [Compound 98, N-(4-cyanophenyl)-2,3-dihydro-2-methyl-5-[(methylsulfonyl)oxy]-3-oxo-4-pyridazinecarboxamide] | – | – | – | – | – | 0% | 9% | 98% | 95% | 97% | 99% | – | – |
| Cn1ncc(OS(C)(=O)=O)c(C(=O)Nc2ccc(S(F)(F)(F)(F)F)cc2)c1=O [Compound 99, [4-[[[2,3-Dihydro-2-methyl-5-[(methylsulfonyl)oxy]-3-oxo-4-pyridazinyl]carbonyl]amino]phenyl]pentafluorosulfur] | – | – | – | – | – | 83% | 92% | 50% | 100% | 98% | 99% | – | – |
| Cn1ncc(OS(C)(=O)=O)c(C(=O)Nc2ccc(OC(F)(F)F)cc2F)c1=O [Compound 100] | 0% | 98% | 92% | – | 95% | – | – | – | – | – | – | 0% | 94% |
| Cn1ncc(OS(C)(=O)=O)c(C(=O)Nc2ccc(F)cc2)c1=O [Compound 101] | 0% | 0% | 78% | – | 99% | – | – | – | – | – | – | 9% | 78% |
| Cn1ncc(OS(C)(=O)=O)c(C(=O)Nc2ccc(C(F)(F)F)cc2F)c1=O [Compound 102] | 0% | 41% | 95% | – | 99% | – | – | – | – | – | – | 26% | 99% |
| Cn1ncc(OS(C)(=O)=O)c(C(=O)Nc2ccccc2-c2cc(F)c(F)c(F)c2)c1=O [Compound 103] | 73% | 0% | 96% | – | 90% | – | – | – | – | – | – | 0% | 84% |
| Cn1ncc(OS(C)(=O)=O)c(C(=O)Nc2ccccc2F)c1=O [Compound 104] | 65% | 0% | 94% | – | 89% | – | – | – | – | – | – | 0% | 87% |
| Cc1cccc(NC(=O)c2c(OS(C)(=O)=O)cnn(C)c2=O)c1 [Compound 105] | 0% | 0% | 86% | – | 86% | – | – | – | – | – | – | 33% | 86% |
| Cn1ncc(OS(C)(=O)=O)c(C(=O)Nc2ccc(Oc3ccccc3)cc2)c1=O [Compound 106] | 81% | 0% | 83% | – | 86% | – | – | – | – | – | – | 85% | 98% |
| COc1cccc(NC(=O)c2c(OS(C)(=O)=O)cnn(C)c2=O)c1 [Compound 108] | 0% | 0% | 0% | – | 68% | – | – | – | – | – | – | 0% | 0% |
| Cc1ccc(S(=O)(=O)Oc2cnn(C)c(=O)c2C(=O)Nc2ccc(OC(F)(F)F)cc2)cc1 [Compound 112] | 0% | 0% | 43% | – | 95% | – | – | – | – | – | – | 46% | 25% |
| Cn1ncc(O)c(C(=O)Nc2c(Cl)cc(Cl)cc2Cl)c1=O [Compound 118] | 97% | 0% | – | 71% | 86% | – | – | – | – | – | – | 100% | – |
| Cc1cc(OC(F)(F)F)ccc1NC(=O)c1c(O)cnn(C)c1=O [Compound 124] | 99% | 0% | – | 99% | 99% | – | – | – | – | – | – | 99% | – |
| Cn1ncc(O)c(C(=O)Nc2ccccc2OC(F)(F)F)c1=O [Compound 126] | 93% | 0% | 82% | 95% | 89% | – | – | – | – | – | – | – | – |
| CCCC(=O)Oc1cnn(C)c(=O)c1C(=O)N(C(=O)CCC)c1ccc(OC(F)(F)F)cc1 [Compound 139] | 100% | 0% | – | 100% | 100% | – | – | – | – | – | – | 0% | – |
| Cn1ncc(O)c(C(=O)Nc2ccc(F)cc2C(F)(F)F)c1=O [Compound 145] | 99% | 0% | 99% | 100% | 99% | – | – | – | – | – | – | – | – |
| Cn1ncc(O)c(C(=O)Nc2ccc(OC(F)(F)F)cc2C(F)(F)F)c1=O [Compound 148] | 98% | 0% | 79% | 79% | 86% | – | – | – | – | – | – | – | – |
| Cn1ncc(Cl)c(C(=O)Nc2ccc(Br)cc2)c1=O [Compound 149] | 0% | 0% | 0% | – | 99% | – | – | – | – | – | – | 68% | 92% |
